Experimental data from paper PMC5218480 (PLoS ONE, 2017).

Test system: MV-4-11 cells
Experiment: Gene expression microarray analysis (Affymetrix PrimeView) and GSEA
Type: cell-based, human
Design: RFU PODN (11730768_x_at) / Fold change /veh PODN (11730768_x_at) / RFU LINC00158 (11744669_a_at) / Fold change /veh LINC00158 (11744669_a_at) / RFU DUSP10 (11751237_a_at) / Fold change /veh DUSP10 (11751237_a_at) / RFU ID3 (11757404_x_at) / Fold change /veh ID3 (11757404_x_at) / RFU PLEKHG5 (11737974_s_at) / Fold change /veh PLEKHG5 (11737974_s_at) / RFU LRRC4B (11730491_at) / Fold change /veh LRRC4B (11730491_at) / RFU GIMAP4 (11747438_a_at) / Fold change /veh GIMAP4 (11747438_a_at) / RFU KRT8 (11758183_x_at) / Fold change /veh KRT8 (11758183_x_at) / RFU CNN1 (11734310_a_at) / Fold change /veh CNN1 (11734310_a_at) / RFU VPS37D (11726825_at) / Fold change /veh VPS37D (11726825_at) / RFU C10orf10 (11716522_x_at) / Fold change /veh C10orf10 (11716522_x_at) / RFU KIR2DL2 /// KIR2DL4 /// KIR2DL5A /// KIR2DL5B /// KIR2DS1 /// KIR2DS2 /// KIR2DS3 /// KIR2DS4 /// KIR3DL3 /// KIR3DL3 /// KIR3DS1 (11738374_at) / Fold change /veh KIR2DL2 /// KIR2DL4 /// KIR2DL5A /// KIR2DL5B /// KIR2DS1 /// KIR2DS2 /// KIR2DS3 /// KIR2DS4 /// KIR3DL3 /// KIR3DL3 /// KIR3DS1 (11738374_at) / RFU C1QL1 (11718748_at) / Fold change /veh C1QL1 (11718748_at) / RFU TMPRSS4 (11747572_a_at) / Fold change /veh TMPRSS4 (11747572_a_at) / RFU HAMP (11756126_x_at) / Fold change /veh HAMP (11756126_x_at) / RFU RNFT2 (11725882_a_at) / Fold change /veh RNFT2 (11725882_a_at) / RFU NR4A2 (11747474_a_at) / Fold change /veh NR4A2 (11747474_a_at) / RFU ABCC12 (11746883_a_at) / Fold change /veh ABCC12 (11746883_a_at) / RFU TMEM136 (11760407_x_at) / Fold change /veh TMEM136 (11760407_x_at) / RFU CLDN22 /// WWC2 (11732394_at) / Fold change /veh CLDN22 /// WWC2 (11732394_at) / RFU HLA-DPB1 (11760878_x_at) / Fold change /veh HLA-DPB1 (11760878_x_at) / RFU SPINT1 (11716480_a_at) / Fold change /veh SPINT1 (11716480_a_at) / RFU GAP43 (11754022_s_at) / Fold change /veh GAP43 (11754022_s_at) / RFU A4GNT (11735810_at) / Fold change /veh A4GNT (11735810_at) / RFU PRB3 (11715151_x_at) / Fold change /veh PRB3 (11715151_x_at) / RFU TUBB4B (11761932_at) / Fold change /veh TUBB4B (11761932_at) / RFU CAPN14 (11732068_a_at) / Fold change /veh CAPN14 (11732068_a_at) / RFU TMCC2 (11721928_a_at) / Fold change /veh TMCC2 (11721928_a_at) / RFU IRGQ (11745062_a_at) / Fold change /veh IRGQ (11745062_a_at) / RFU FAM174B (11720279_a_at) / Fold change /veh FAM174B (11720279_a_at) / RFU TMPRSS4 (11748680_a_at) / Fold change /veh TMPRSS4 (11748680_a_at) / RFU FAM212B (11763350_a_at) / Fold change /veh FAM212B (11763350_a_at) / RFU PLEKHG5 (11743358_a_at) / Fold change /veh PLEKHG5 (11743358_a_at) / RFU ZSCAN30 (11745921_a_at) / Fold change /veh ZSCAN30 (11745921_a_at) / RFU CMKLR1 (11741424_a_at) / Fold change /veh CMKLR1 (11741424_a_at) / RFU LOC101060620 /// MAPK8IP1 (11723275_at) / Fold change /veh LOC101060620 /// MAPK8IP1 (11723275_at) / RFU SPTSSB (11747773_x_at) / Fold change /veh SPTSSB (11747773_x_at) / RFU PRSS12 (11739890_at) / Fold change /veh PRSS12 (11739890_at) / RFU BIN1 (11741810_x_at) / Fold change /veh BIN1 (11741810_x_at) / RFU WNT11 (11732464_a_at) / Fold change /veh WNT11 (11732464_a_at) / RFU C10orf10 (11716521_a_at) / Fold change /veh C10orf10 (11716521_a_at) / RFU C5orf56 (11738089_at) / Fold change /veh C5orf56 (11738089_at) / RFU CYB561 (11721691_x_at) / Fold change /veh CYB561 (11721691_x_at) / RFU ANKRD19P (11752326_a_at) / Fold change /veh ANKRD19P (11752326_a_at) / RFU OR2T12 /// OR2T33 /// OR2T8 (11738714_s_at) / Fold change /veh OR2T12 /// OR2T33 /// OR2T8 (11738714_s_at) / RFU VCAN (11748164_a_at) / Fold change /veh VCAN (11748164_a_at) / RFU JSRP1 (11732532_at) / Fold change /veh JSRP1 (11732532_at) / RFU KRTAP10-11 (11738290_x_at) / Fold change /veh KRTAP10-11 (11738290_x_at) / RFU MYO3A (11730013_a_at) / Fold change /veh MYO3A (11730013_a_at) / RFU EBF3 (11725865_a_at) / Fold change /veh EBF3 (11725865_a_at) / RFU CAMK2N1 (11719241_x_at) / Fold change /veh CAMK2N1 (11719241_x_at) / RFU C5orf56 (11738088_a_at) / Fold change /veh C5orf56 (11738088_a_at) / RFU OLFML3 (11715873_a_at) / Fold change /veh OLFML3 (11715873_a_at) / RFU LOC100653217 /// NTM (11731650_a_at) / Fold change /veh LOC100653217 /// NTM (11731650_a_at) / RFU MAPK11 (11762145_a_at) / Fold change /veh MAPK11 (11762145_a_at) / RFU FIZ1 (11724087_x_at) / Fold change /veh FIZ1 (11724087_x_at) / RFU OASL (11726364_x_at) / Fold change /veh OASL (11726364_x_at) / RFU SOX15 (11748057_x_at) / Fold change /veh SOX15 (11748057_x_at) / RFU CD79A (11719716_a_at) / Fold change /veh CD79A (11719716_a_at) / RFU HIST1H1D (11736915_at) / Fold change /veh HIST1H1D (11736915_at) / RFU CASKIN2 (11723855_a_at) / Fold change /veh CASKIN2 (11723855_a_at) / RFU LOC730098 (11760151_x_at) / Fold change /veh LOC730098 (11760151_x_at) / RFU OR4N2 (11742367_at) / Fold change /veh OR4N2 (11742367_at) / RFU PRRT2 (11749266_a_at) / Fold change /veh PRRT2 (11749266_a_at) / RFU SNX32 (11753110_a_at) / Fold change /veh SNX32 (11753110_a_at) / RFU CDHR5 (11726645_a_at) / Fold change /veh CDHR5 (11726645_a_at) / RFU RCAN1 (11760418_a_at) / Fold change /veh RCAN1 (11760418_a_at) / RFU FAM167A (11723789_a_at) / Fold change /veh FAM167A (11723789_a_at) / RFU FAM26E (11764081_at) / Fold change /veh FAM26E (11764081_at) / RFU ISYNA1 (11749810_s_at) / Fold change /veh ISYNA1 (11749810_s_at) / RFU ACY1 (11761880_at) / Fold change /veh ACY1 (11761880_at) / RFU 11764098_at / Fold change /veh 11764098_at / RFU SAMD14 (11745864_x_at) / Fold change /veh SAMD14 (11745864_x_at) / RFU NPB (11741838_a_at) / Fold change /veh NPB (11741838_a_at) / RFU TMPRSS6 (11731388_a_at) / Fold change /veh TMPRSS6 (11731388_a_at) / RFU KRTAP10-2 (11738614_at) / Fold change /veh KRTAP10-2 (11738614_at) / RFU ARHGAP8 /// PRR5-ARHGAP8 (11727945_x_at) / Fold change /veh ARHGAP8 /// PRR5-ARHGAP8 (11727945_x_at) / RFU KRTAP5-7 /// NADSYN1 (11734609_at) / Fold change /veh KRTAP5-7 /// NADSYN1 (11734609_at) / RFU RASL12 (11751679_a_at) / Fold change /veh RASL12 (11751679_a_at) / RFU CDKN2B (11736163_a_at) / Fold change /veh CDKN2B (11736163_a_at) / RFU PRF1 (11729649_at) / Fold change /veh PRF1 (11729649_at) / RFU, ZNF638 /// ZNF638-IT1 / Fold change vs veh, ZNF638 /// ZNF638-IT1 / RFU, PANK3 / Fold change vs veh, PANK3 / RFU, SH3YL1 / Fold change vs veh, SH3YL1 / RFU, ZEB2 / Fold change vs veh, ZEB2 / RFU, NRIP1 / Fold change vs veh, NRIP1 / RFU, PTTG1IP / Fold change vs veh, PTTG1IP / RFU, CAPN2 / Fold change vs veh, CAPN2 / RFU, MED14 / Fold change vs veh, MED14 / RFU, SNORA58 / Fold change vs veh, SNORA58 / RFU, C1orf63 / Fold change vs veh, C1orf63 / RFU, LRRFIP1 / Fold change vs veh, LRRFIP1 / RFU, NDUFAF7 / Fold change vs veh, NDUFAF7 / RFU, SLC12A2 / Fold change vs veh, SLC12A2 / RFU, IBTK / Fold change vs veh, IBTK / RFU, ESF1 / Fold change vs veh, ESF1 / Fold change vs veh, TMEM50B / RFU, TAOK1 / Fold change vs veh, TAOK1 / RFU, ACBD3 / Fold change vs veh, ACBD3 / RFU, TMA16 / Fold change vs veh, TMA16 / RFU, RWDD3 / Fold change vs veh, RWDD3 / RFU, BCAT1 / Fold change vs veh, BCAT1 / RFU, EDEM3 / Fold change vs veh, EDEM3 / RFU, TMEM33 / Fold change vs veh, TMEM33 / RFU, WDR75 / Fold change vs veh, WDR75 / RFU, AHCTF1 / Fold change vs veh, AHCTF1 / RFU, TFRC / Fold change vs veh, TFRC / RFU, ZDHHC17 / Fold change vs veh, ZDHHC17 / RFU, NOM1 / Fold change vs veh, NOM1 / RFU, ARL8B / Fold change vs veh, ARL8B / RFU, ZBTB11 / Fold change vs veh, ZBTB11 / RFU, TAMM41 / Fold change vs veh, TAMM41 / RFU, KIAA1704 /// LOC100996395 / Fold change vs veh, KIAA1704 /// LOC100996395 / RFU, ING1 / Fold change vs veh, ING1 / RFU, TRMT61B / Fold change vs veh, TRMT61B / RFU, FUBP3 / Fold change vs veh, FUBP3 / RFU, TP53 / Fold change vs veh, TP53 / RFU, TNKS2 / Fold change vs veh, TNKS2 / RFU, ZFP14 / Fold change vs veh, ZFP14 / RFU, ACTR2 / Fold change vs veh, ACTR2 / RFU, PPP3R1 / Fold change vs veh, PPP3R1 / RFU, PIK3R1 / Fold change vs veh, PIK3R1 / RFU, HNRNPA1 / Fold change vs veh, HNRNPA1 / RFU, RNF170 / Fold change vs veh, RNF170 / RFU, ZNF28 / Fold change vs veh, ZNF28 / RFU, RNGTT / Fold change vs veh, RNGTT / RFU, OGT / Fold change vs veh, OGT / RFU, BRD1 / Fold change vs veh, BRD1 / RFU, MARS / Fold change vs veh, MARS / RFU, ZNF655 / Fold change vs veh, ZNF655 / RFU, FAHD1 / Fold change vs veh, FAHD1 / RFU, BDP1 / Fold change vs veh, BDP1 / RFU, LRRCC1 / Fold change vs veh, LRRCC1 / RFU, ARID1A / Fold change vs veh, ARID1A / RFU, ZNF146 / Fold change vs veh, ZNF146 / RFU, ZNF330 / Fold change vs veh, ZNF330 / RFU, GPN3 / Fold change vs veh, GPN3 / RFU, C9orf123 / Fold change vs veh, C9orf123 / RFU, N4BP2L2 / Fold change vs veh, N4BP2L2 / RFU, ARFIP1 / Fold change vs veh, ARFIP1 / RFU, FAM179B / Fold change vs veh, FAM179B / RFU, BCL10 / Fold change vs veh, BCL10 / RFU, UHRF1BP1L / Fold change vs veh, UHRF1BP1L / RFU, BET1 / Fold change vs veh, BET1 / RFU, CNOT2 / Fold change vs veh, CNOT2 / RFU, ZNF268 / Fold change vs veh, ZNF268 / Fold change vs veh, ZNF507 / RFU, DGCR2 / Fold change vs veh, DGCR2 / RFU, WDSUB1 / Fold change vs veh, WDSUB1 / Fold change vs veh, HSP90B1 /// MIR3652 / RFU, ADSS / Fold change vs veh, ADSS / RFU, GK / Fold change vs veh, GK / RFU, ZNF148 / Fold change vs veh, ZNF148 / RFU, TAF9 / Fold change vs veh, TAF9 / RFU, SLC1A5 / Fold change vs veh, SLC1A5 / RFU, SLMO2 / Fold change vs veh, SLMO2 / RFU, ABCC4 / Fold change vs veh, ABCC4 / RFU, LOC101060439 /// RAP1B / Fold change vs veh, LOC101060439 /// RAP1B / RFU, RFX7 / Fold change vs veh, RFX7 / RFU, GTPBP10 / Fold change vs veh, GTPBP10 / RFU, CNEP1R1 / Fold change vs veh, CNEP1R1 / RFU, BIVM-ERCC5 /// ERCC5 / Fold change vs veh, BIVM-ERCC5 /// ERCC5 / RFU, ILF3 / Fold change vs veh, ILF3 / RFU 11762660_at / Fold change /veh 11762660_at / RFU VCAN (11757783_s_at) / Fold change /veh VCAN (11757783_s_at) / RFU DDX43 (11728927_at) / Fold change /veh DDX43 (11728927_at) / RFU KRT8 (11758188_x_at) / Fold change /veh KRT8 (11758188_x_at) / RFU NKD1 (11759106_at) / Fold change /veh NKD1 (11759106_at) / RFU SRD5A1 (11742802_a_at) / Fold change /veh SRD5A1 (11742802_a_at) / RFU TPSAB1 /// TPSB2 (11721975_s_at) / Fold change /veh TPSAB1 /// TPSB2 (11721975_s_at) / RFU GSTM3 (11746129_a_at) / Fold change /veh GSTM3 (11746129_a_at) / RFU IL23R (11737362_x_at) / Fold change /veh IL23R (11737362_x_at) / RFU TMEM51 (11727254_a_at) / Fold change /veh TMEM51 (11727254_a_at) / RFU PIWIL2 (11732686_x_at) / Fold change /veh PIWIL2 (11732686_x_at) / RFU ORM1 (11744905_x_at) / Fold change /veh ORM1 (11744905_x_at) / RFU CCDC152 (11743942_at) / Fold change /veh CCDC152 (11743942_at) / RFU ECM1 (11717891_a_at) / Fold change /veh ECM1 (11717891_a_at) / RFU IL23R (11748794_a_at) / Fold change /veh IL23R (11748794_a_at) / RFU TNFAIP8L3 (11732012_x_at) / Fold change /veh TNFAIP8L3 (11732012_x_at) / RFU MBOAT4 (11741988_at) / Fold change /veh MBOAT4 (11741988_at) / RFU 11764193_at / Fold change /veh 11764193_at / RFU TMEM53 (11763286_at) / Fold change /veh TMEM53 (11763286_at) / RFU MAGEB2 (11727129_at) / Fold change /veh MAGEB2 (11727129_at) / RFU TMEM200A (11744735_a_at) / Fold change /veh TMEM200A (11744735_a_at) / RFU CCDC152 (11751479_a_at) / Fold change /veh CCDC152 (11751479_a_at) / RFU FAM211A (11726209_a_at) / Fold change /veh FAM211A (11726209_a_at) / RFU RGS16 (11746705_a_at) / Fold change /veh RGS16 (11746705_a_at) / RFU VCAN (11755009_s_at) / Fold change /veh VCAN (11755009_s_at) / RFU RHOB (11743442_s_at) / Fold change /veh RHOB (11743442_s_at) / RFU RGS16 (11720943_a_at) / Fold change /veh RGS16 (11720943_a_at) / RFU RGS16 (11720944_at) / Fold change /veh RGS16 (11720944_at) / RFU, VPS4B / Fold change vs veh, VPS4B / RFU, CREB1 / Fold change vs veh, CREB1 / RFU, DNAJC13 / Fold change vs veh, DNAJC13 / RFU, GNAQ / Fold change vs veh, GNAQ / RFU, CDK5R1 / Fold change vs veh, CDK5R1 / RFU, ZRANB3 / Fold change vs veh, ZRANB3 / RFU, CUL4A / Fold change vs veh, CUL4A / RFU, CCNY / Fold change vs veh, CCNY / RFU, UFL1 / Fold change vs veh, UFL1 / RFU, COG3 / Fold change vs veh, COG3 / RFU, DIAPH2 / Fold change vs veh, DIAPH2 / RFU, SKA2 / Fold change vs veh, SKA2 / RFU, AFF3 / Fold change vs veh, AFF3 / RFU, LMF1 / Fold change vs veh, LMF1 / RFU, IPO11 / Fold change vs veh, IPO11 / RFU, DFFB / Fold change vs veh, DFFB / RFU, FOXP1 / Fold change vs veh, FOXP1 / RFU, CARD8 / Fold change vs veh, CARD8 / RFU, STRN3 / Fold change vs veh, STRN3 / RFU, ADK / Fold change vs veh, ADK / RFU, RASSF2 / Fold change vs veh, RASSF2 / RFU, WIPF1 / Fold change vs veh, WIPF1 / RFU, LARP1B / Fold change vs veh, LARP1B / RFU, RASA1 / Fold change vs veh, RASA1 / RFU, RB1 / Fold change vs veh, RB1 / RFU, PPFIA1 / Fold change vs veh, PPFIA1 / RFU, MAT2A / Fold change vs veh, MAT2A / RFU, CCT5 / Fold change vs veh, CCT5 / RFU, WDR92 / Fold change vs veh, WDR92 / RFU, CUX1 / Fold change vs veh, CUX1 / RFU, TTC7A / Fold change vs veh, TTC7A / RFU, TMEM135 / Fold change vs veh, TMEM135 / RFU, DEPTOR / Fold change vs veh, DEPTOR / RFU, CPM / Fold change vs veh, CPM / RFU, DNAJB6 / Fold change vs veh, DNAJB6 / RFU, CACNA2D3 / Fold change vs veh, CACNA2D3 / RFU, DTX4 / Fold change vs veh, DTX4 / RFU, TFCP2 / Fold change vs veh, TFCP2 / RFU, GMCL1 /// GMCL1P1 / Fold change vs veh, GMCL1 /// GMCL1P1 / RFU, AEBP2 / Fold change vs veh, AEBP2 / RFU, SNHG1 /// SNORD22 /// SNORD25 /// SNORD26 /// SNORD27 /// SNORD28 /// SNORD29 /// SNORD31 / Fold change vs veh, SNHG1 /// SNORD22 /// SNORD25 /// SNORD26 /// SNORD27 /// SNORD28 /// SNORD29 /// SNORD31 / Fold change (Aza/veh), C12orf56 (ProbeSet 11735607_a_at) / Fold change (ACY-1035/veh), C12orf56 (ProbeSet 11735607_a_at) / Fold change (Aza/veh), FGFR1OP (ProbeSet 11751329_s_at) / Fold change (ACY-1035/veh), FGFR1OP (ProbeSet 11751329_s_at) / Fold change (Aza/veh), VPS36 (ProbeSet 11739960_a_at) / Fold change (ACY-1035/veh), VPS36 (ProbeSet 11739960_a_at) / RFU SYPL1 (11715823_x_at) / Fold change /veh SYPL1 (11715823_x_at) / RFU IGFBP7 (11715501_s_at) / Fold change /veh IGFBP7 (11715501_s_at) / RFU REEP3 (11722064_at) / Fold change /veh REEP3 (11722064_at) / RFU IGLL1 (11728026_x_at) / Fold change /veh IGLL1 (11728026_x_at): dose or concentration left out as unconfirmed
Settings: MV-4-11 cells, 48 hours

## Nc1ccc(-c2cccs2)cc1NC(=O)c1ccc2c(c1)cc(C1CC1)n2CCN1CCOCC1 [ACY-1035]
  RFU SNX32 (11753110_a_at): 6.46 RFU
